Assay results: the NIST ThermoML archive (doi:10.1021/je060200b)

Test: molar heat capacity at constant pressure; xn = mol fraction of the nth substance listed
Conditions: 101 kPa, Liquid

BrCCCCCBr [1,5-dibromopentane] + CCCCCCC
molar heat capacity at constant pressure [J/K/mol]
Conditions	x1 = 0.1006	x1 = 0.1994	x1 = 0.3003	x1 = 0.4008	x1 = 0.5004	x1 = 0.5999	x1 = 0.6995	x1 = 0.8002	x1 = 0.899	x1 = 1
293.15 K	221.62	221.15	221	220.91	220.8	220.5	220.19	219.87	219.89	219.76
294.15 K	221.93	221.54	221.39	221.29	221.14	220.66	220.44	220.16	220.02	219.98
295.15 K	222.35	221.76	221.59	221.6	221.41	220.91	220.59	220.44	220.3	220.19
296.15 K	222.62	222.09	221.89	221.77	221.59	221.3	220.81	220.57	220.61	220.41
297.15 K	223.06	222.53	222.34	222.15	221.87	221.5	221.19	220.89	220.76	220.66
298.15 K	223.39	222.84	222.66	222.48	222.23	221.68	221.42	221.11	221.09	220.84
299.15 K	223.7	223.2	222.87	222.74	222.55	221.91	221.69	221.39	221.32	221.1
300.15 K	224.16	223.42	223.3	222.91	222.69	222.3	221.83	221.48	221.55	221.28
301.15 K	224.39	223.89	223.58	223.33	223.05	222.57	222.17	221.85	221.77	221.49
302.15 K	224.88	224.24	223.78	223.52	223.39	222.87	222.33	222.09	221.93	221.73
303.15 K	225.21	224.57	224.21	223.81	223.49	–	–	–	–	–
